The supplement of paper PMC10307832

Key:
Assay in all cases: relative viability (nuclei count vs DMSO), 5 days (fraction); higher = more cells survive
Dabrafenib + Phenformin = compound: CC(C)(C)c1nc(-c2cccc(NS(=O)(=O)c3c(F)cccc3F)c2F)c(-c2ccnc(N)n2)s1 [Dabrafenib] + N=C(N)NC(=N)NCCc1ccccc1 [Phenformin] (partner 250 µM)
Summary of the method: (§1)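 Relative viability equals treated-well nuclei counts divided by vehicle-well nuclei counts. Counts came from 4× images of lung cancer cell lines grown in 1536-well plates for 5 days after pin-tool dosing on the day after seeding. Dosing used one drug alone or a fixed anchor-drug dose plus five library-drug doses (not always all listed) in √10 steps, and values are medians of duplicate plates.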

Dabrafenib + Alpelisib = compound: CC(C)(C)c1nc(-c2cccc(NS(=O)(=O)c3c(F)cccc3F)c2F)c(-c2ccnc(N)n2)s1 [Dabrafenib] + Cc1nc(NC(=O)N2CCC[C@H]2C(N)=O)sc1-c1ccnc(C(C)(C)C(F)(F)F)c1 [Alpelisib] (partner 2 µM)
Summary of the method: as §1

VX-702 + Vorinostat = compound: NC(=O)c1ccc(N(C(N)=O)c2c(F)cccc2F)nc1-c1ccc(F)cc1F [VX-702] + O=C(CCCCCCC(=O)Nc1ccccc1)NO [Vorinostat] (partner 1 µM)
Summary of the method: as §1

Dabrafenib + Trametinib = compound: CC(C)(C)c1nc(-c2cccc(NS(=O)(=O)c3c(F)cccc3F)c2F)c(-c2ccnc(N)n2)s1 [Dabrafenib] + CC(=O)Nc1cccc(-n2c(=O)n(C3CC3)c(=O)c3c(Nc4ccc(I)cc4F)n(C)c(=O)c(C)c32)c1 [Trametinib] (partner 0.02 µM)
Summary of the method: as §1

Cell Line	relative viability (Dabrafenib + Phenformin; first compound 0.003 µM)	relative viability (Dabrafenib + Phenformin; first compound 0.009487 µM)	relative viability (Dabrafenib + Phenformin; first compound 0.03 µM)	relative viability (Dabrafenib + Phenformin; first compound 0.09487 µM)	relative viability (Dabrafenib + Phenformin; first compound 0.3 µM)	relative viability (Dabrafenib + Alpelisib; first compound 0.003 µM)	relative viability (Dabrafenib + Alpelisib; first compound 0.009487 µM)	relative viability (Dabrafenib + Alpelisib; first compound 0.03 µM)	relative viability (Dabrafenib + Alpelisib; first compound 0.09487 µM)	relative viability (Dabrafenib + Alpelisib; first compound 0.3 µM)	relative viability (VX-702 + Vorinostat; first compound 0.02 µM)	relative viability (VX-702 + Vorinostat; first compound 0.2 µM)	relative viability (VX-702 + Vorinostat; first compound 0.6325 µM)	relative viability (VX-702 + Vorinostat; first compound 2 µM)	relative viability (Dabrafenib + Trametinib; first compound 0.003 µM)	relative viability (Dabrafenib + Trametinib; first compound 0.009487 µM)	relative viability (Dabrafenib + Trametinib; first compound 0.03 µM)	relative viability (Dabrafenib + Trametinib; first compound 0.09487 µM)	relative viability (Dabrafenib + Trametinib; first compound 0.3 µM)
NCI-H1993	0.33	0.536	0.482	0.446	0.513	0.689	0.618	0.534	0.686	0.778	0.661	0.754	0.588	1.03	0.53	0.474	0.508	0.687	0.621
HCC-78		0.866	0.704	0.614	0.667		0.445	0.346	0.305	0.332	0.393	0.486	0.427	0.543		0.688	0.668	0.761	0.89
HCC-44		0.173	0.183	0.227	0.235	0.751	0.792	0.789	0.732	0.807	1.17	1.09	1.19	1.16	0.926	0.993	1.18	0.876	1.11
LXF-289	0.364	0.511	0.487	0.493	0.542	1.02	1.03	1.02	0.991	1.06	0.816	0.765	0.811	0.786	0.677	0.653	0.711	0.672	0.733
201T	0.423	0.428	0.372	0.41	0.465	1.06	1.08	0.932	1.01	1.05	0.966	0.956	1.09	1	0.723	0.744	0.654	0.685	0.751
NCI-H2023	0.4	0.406	0.419	0.423	0.443	0.668	0.614	0.635	0.614	0.801	0.615	0.736	0.679	0.938	0.533	0.547	0.55	0.581	0.663
NCI-H1437	0.2	0.3	0.259	0.3	0.4	1.03	1	1.04	1.02	1.06	0.904	0.827	0.863	1.05	0.522	0.502	0.688	0.579	0.73
HCC-827	0.31	0.447	0.354		0.385	0.895	0.967	0.778	0.793	0.963	0.879	0.799	0.885	0.827	0.511	0.53	0.522		0.616
HARA	0.448	0.46		0.364	0.511	0.669	0.89	0.646	0.732	1.09	0.527	0.51	0.542	0.449		0.805	0.832	0.721	1
NCI-H838	0.564	0.648	0.451	0.566	0.625	1.01	1.07	0.861	0.93	1.15	0.737	0.702	0.751	0.787	0.51	0.614	0.428	0.429	0.506
LCLC-103H	0.304	0.35	0.328	0.345	0.331	0.726	1.16	0.912	0.853	0.972	0.813	0.799	0.835	0.839	0.635	0.707	0.614	0.684	0.701
NCI-H2085	0.482	0.809	0.592	0.596	0.714	0.949	1.02	0.93	0.997	0.954	0.861	0.802	0.855	0.848	0.523	0.583	0.46	0.589	0.633
COR-L23	0.466	0.425	0.431	0.396	0.431	0.715	0.784	0.713	0.678	0.85	0.511	0.47	0.46	0.491	0.528	0.432	0.626	0.512	0.656
NCI-H322M		0.86	0.579	0.744	0.502		0.829		0.629	0.85	0.921	0.874	0.854	0.93		0.492		0.53	0.532
NCI-H1915	0.392	0.402	0.266	0.29	0.272	1.03	1.05	0.979	0.897	0.984	0.578	0.513	0.492	0.548	0.295	0.249	0.264	0.288	0.313
EPLC-272H	0.211	0.331	0.406	0.267	0.332		1.1	0.843	0.962	0.864	0.401	0.571	0.535	0.438		0.262	0.312	0.349	0.329
NCI-H1734		0.302	0.388	0.389	0.362		0.775	0.585	0.573	0.688	0.812	0.759	0.781	0.732		0.718	0.627	0.721	0.727
NCI-H2405		0.286		0.37	0.371		0.768		0.644	0.701	1.1	0.909	0.972	1.1		0.46	0.409	0.475	0.523
